PubChem BioAssay (NCI)
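All cell lines were grown in 96-well plates and treated with compound for 48 hours. TGI denotes the concentration required for complete inhibition of growth.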

Key:
Test in all cases: NCI anticancer screen, dose series, 48 h
DMS 273 small cell lung = system: DMS 273 small cell lung
SNB-78 CNS = system: SNB-78 CNS
HOP-18 NSCLC = system: HOP-18 NSCLC
DMS 114 small cell lung = system: DMS 114 small cell lung
M19-MEL melanoma = system: M19-MEL melanoma
LXFL 529 NSCLC = system: LXFL 529 NSCLC

Measured: TGI

O=C(CCc1n[nH]c(=S)o1)Nc1ccccc1C(F)(F)F
> 100 µM: all assays above

OCC1OC(c2nc(C3=NCCCN3)cs2)C(O)C1O (centres undefined)
> 100 µM: all assays above

Cc1cc(N(CCC#N)CCC#N)ccc1N=Nc1ccc(C(=O)O)cc1
> 100 µM: all assays above

CN1CCOC(c2ccccc2)O1 (centres undefined)
> 100 µM: all assays above
